Numbers after ± are expanded uncertainties.
Experiments:
[1] = refractive index (Na D-line) (dimensionless); settings: 298.15 K; 101.33 kPa; Liquid; Standard Abbe refractometry
[2] = 295.15 K; 101.33 kPa; Liquid; Vibrating tube method
[3] = xn = mol fraction of the nth substance listed; settings: 298.15 K, 101 kPa, Liquid, Vibrating tube method
[4] = excess molar enthalpy (molar enthalpy of mixing); xn = mol fraction of the nth substance listed; settings: 298.15 K, 101 kPa, Liquid

BrCCBr [1,2-dibromoethane] showed a refractive index [1] of 1.5357 ± 0.0008 and a mass density [2] of 2168.3 ± 1.3 kg/m3.

In the case of BrCCCBr [1,3-dibromopropane], the refractive index [1] is reported as 1.5204 ± 0.0008 and the mass density [2] is reported as 1970.25 ± 1.1 kg/m3.

Compound BrCCCCBr [1,4-dibromobutane] has a refractive index [1] of 1.5163 ± 0.0008 and a mass density [2] of 1819.44 ± 1 kg/m3.

With BrCCCCCBr [1,5-dibromopentane] the refractive index [1] was 1.5099 ± 0.0009 and the mass density [2] was 1694.09 ± 2.6 kg/m3.

For BrCCCCCBr [1,5-dibromopentane] + CCOC(=O)CC, the mass density ([3]; x2 = 0.1344) was 1600.12 ± 2.7 kg/m3, the mass density ([3]; x2 = 0.2009) was 1552.01 ± 2.8 kg/m3 and the mass density ([3]; x2 = 0.263) was 1506.12 ± 2.8 kg/m3. It also gave a mass density ([3]; x2 = 0.3276) of 1457.5 ± 2.8 kg/m3, a mass density ([3]; x2 = 0.3859) of 1412.68 ± 2.8 kg/m3 and a mass density ([3]; x2 = 0.4471) of 1364.74 ± 2.8 kg/m3. The mass density ([3]; x2 = 0.5096) was 1314.84 ± 2.8 kg/m3, the mass density ([3]; x2 = 0.6206) was 1223.48 ± 2.7 kg/m3 and the mass density ([3]; x2 = 0.6836) was 1170.2 ± 2.7 kg/m3. It also gave a mass density ([3]; x2 = 0.7919) of 1075.76 ± 2.6 kg/m3, a mass density ([3]; x2 = 0.8414) of 1031.42 ± 2.5 kg/m3 and a mass density ([3]; x2 = 0.8957) of 981.96 ± 2.5 kg/m3. The excess molar enthalpy ([4]; x2 = 0.0603) was 0.00839 ± 0.000502 kcal/mol, the excess molar enthalpy ([4]; x2 = 0.1247) was 0.0137 ± 0.000598 kcal/mol and the excess molar enthalpy ([4]; x2 = 0.193) was 0.0172 ± 0.000669 kcal/mol. For the same compound, the excess molar enthalpy ([4]; x2 = 0.261) was 0.0185 ± 0.000717 kcal/mol, the excess molar enthalpy ([4]; x2 = 0.3249) was 0.0179 ± 0.000693 kcal/mol and the excess molar enthalpy ([4]; x2 = 0.3861) was 0.0152 ± 0.000645 kcal/mol. For the same compound, the excess molar enthalpy ([4]; x2 = 0.4412) was 0.0111 ± 0.00055 kcal/mol, the excess molar enthalpy ([4]; x2 = 0.4896) was 0.007 ± 0.000478 kcal/mol and the excess molar enthalpy ([4]; x2 = 0.5244) was 0.00378 ± 0.00043 kcal/mol. The excess molar enthalpy ([4]; x2 = 0.5365) was 0.00325 ± 0.00043 kcal/mol, the excess molar enthalpy ([4]; x2 = 0.5747) was -0.000717 ± 0.000406 kcal/mol and the excess molar enthalpy ([4]; x2 = 0.5773) was -0.00105 ± 0.000406 kcal/mol. For the same compound, the excess molar enthalpy ([4]; x2 = 0.6302) was -0.00359 ± 0.00043 kcal/mol, the excess molar enthalpy ([4]; x2 = 0.6884) was -0.00526 ± 0.000454 kcal/mol and the excess molar enthalpy ([4]; x2 = 0.752) was -0.00629 ± 0.000478 kcal/mol. For the same compound, the excess molar enthalpy ([4]; x2 = 0.8187) was -0.00576 ± 0.000478 kcal/mol, the excess molar enthalpy ([4]; x2 = 0.8848) was -0.00461 ± 0.000454 kcal/mol and the excess molar enthalpy ([4]; x2 = 0.9461) was -0.00289 ± 0.00043 kcal/mol.

BrCCCCCBr [1,5-dibromopentane] + CCOC(C)=O showed a mass density ([3]; x2 = 0.0866) of 1642.62 ± 2.7 kg/m3, a mass density ([3]; x2 = 0.1624) of 1595.36 ± 2.8 kg/m3 and a mass density ([3]; x2 = 0.2251) of 1554.67 ± 2.8 kg/m3. The mass density ([3]; x2 = 0.2991) was 1504.62 ± 2.8 kg/m3, the mass density ([3]; x2 = 0.3623) was 1460.11 ± 2.9 kg/m3 and the mass density ([3]; x2 = 0.4225) was 1416.21 ± 2.9 kg/m3. The mass density ([3]; x2 = 0.5458) was 1321 ± 2.9 kg/m3, the mass density ([3]; x2 = 0.6601) was 1225.85 ± 2.8 kg/m3 and the mass density ([3]; x2 = 0.765) was 1131.91 ± 2.7 kg/m3. It also gave a mass density ([3]; x2 = 0.8611) of 1039.57 ± 2.6 kg/m3, a mass density ([3]; x2 = 0.9561) of 941.92 ± 2.4 kg/m3 and an excess molar enthalpy ([4]; x2 = 0.0775) of 0.0259 ± 0.000884 kcal/mol. For the same compound, the excess molar enthalpy ([4]; x2 = 0.1619) was 0.0431 ± 0.00129 kcal/mol, the excess molar enthalpy ([4]; x2 = 0.2431) was 0.0561 ± 0.0016 kcal/mol and the excess molar enthalpy ([4]; x2 = 0.3197) was 0.0639 ± 0.00179 kcal/mol. It also gave an excess molar enthalpy ([4]; x2 = 0.3909) of 0.0676 ± 0.00186 kcal/mol, an excess molar enthalpy ([4]; x2 = 0.4536) of 0.0674 ± 0.00186 kcal/mol and an excess molar enthalpy ([4]; x2 = 0.5079) of 0.0658 ± 0.00184 kcal/mol. For the same compound, the excess molar enthalpy ([4]; x2 = 0.5103) was 0.0652 ± 0.00182 kcal/mol, the excess molar enthalpy ([4]; x2 = 0.5486) was 0.0622 ± 0.00174 kcal/mol and the excess molar enthalpy ([4]; x2 = 0.5612) was 0.062 ± 0.00174 kcal/mol. It also gave an excess molar enthalpy ([4]; x2 = 0.5934) of 0.0591 ± 0.00167 kcal/mol, an excess molar enthalpy ([4]; x2 = 0.6025) of 0.0577 ± 0.00163 kcal/mol and an excess molar enthalpy ([4]; x2 = 0.6413) of 0.053 ± 0.00153 kcal/mol. For the same compound, the excess molar enthalpy ([4]; x2 = 0.6919) was 0.0458 ± 0.00134 kcal/mol, the excess molar enthalpy ([4]; x2 = 0.7451) was 0.0375 ± 0.00115 kcal/mol and the excess molar enthalpy ([4]; x2 = 0.7998) was 0.0284 ± 0.000932 kcal/mol. For the same compound, the excess molar enthalpy ([4]; x2 = 0.8546) was 0.0198 ± 0.000741 kcal/mol, the excess molar enthalpy ([4]; x2 = 0.9082) was 0.012 ± 0.000574 kcal/mol and the excess molar enthalpy ([4]; x2 = 0.9563) was 0.00528 ± 0.000478 kcal/mol.

Work on BrCCCCCBr [1,5-dibromopentane] + CCOC=O yielded a mass density ([3]; x2 = 0.089) of 1651.25 ± 2.7 kg/m3, a mass density ([3]; x2 = 0.1775) of 1605.2 ± 2.8 kg/m3 and a mass density ([3]; x2 = 0.2567) of 1560.84 ± 2.9 kg/m3. It also gave a mass density ([3]; x2 = 0.3412) of 1509.84 ± 2.9 kg/m3, a mass density ([3]; x2 = 0.4134) of 1463.17 ± 2.9 kg/m3 and a mass density ([3]; x2 = 0.5374) of 1374.43 ± 3 kg/m3. The mass density ([3]; x2 = 0.7024) was 1237.83 ± 2.9 kg/m3, the mass density ([3]; x2 = 0.7951) was 1149.61 ± 2.8 kg/m3 and the mass density ([3]; x2 = 0.8844) was 1054.85 ± 2.6 kg/m3. The mass density ([3]; x2 = 0.9227) was 1010.83 ± 2.6 kg/m3, the excess molar enthalpy ([4]; x2 = 0.0896) was 0.0659 ± 0.00184 kcal/mol and the excess molar enthalpy ([4]; x2 = 0.1866) was 0.108 ± 0.00287 kcal/mol. The excess molar enthalpy ([4]; x2 = 0.279) was 0.138 ± 0.00359 kcal/mol, the excess molar enthalpy ([4]; x2 = 0.3638) was 0.157 ± 0.00406 kcal/mol and the excess molar enthalpy ([4]; x2 = 0.4389) was 0.166 ± 0.0043 kcal/mol. For the same compound, the excess molar enthalpy ([4]; x2 = 0.5051) was 0.169 ± 0.0043 kcal/mol, the excess molar enthalpy ([4]; x2 = 0.5631) was 0.166 ± 0.0043 kcal/mol and the excess molar enthalpy ([4]; x2 = 0.6125) was 0.158 ± 0.00406 kcal/mol. It also gave an excess molar enthalpy ([4]; x2 = 0.6372) of 0.153 ± 0.00406 kcal/mol, an excess molar enthalpy ([4]; x2 = 0.6548) of 0.149 ± 0.00382 kcal/mol and an excess molar enthalpy ([4]; x2 = 0.6837) of 0.142 ± 0.00359 kcal/mol. For the same compound, the excess molar enthalpy ([4]; x2 = 0.6928) was 0.139 ± 0.00359 kcal/mol, the excess molar enthalpy ([4]; x2 = 0.7324) was 0.128 ± 0.00335 kcal/mol and the excess molar enthalpy ([4]; x2 = 0.7827) was 0.108 ± 0.00287 kcal/mol. The excess molar enthalpy ([4]; x2 = 0.831) was 0.088 ± 0.00237 kcal/mol, the excess molar enthalpy ([4]; x2 = 0.8797) was 0.065 ± 0.00182 kcal/mol and the excess molar enthalpy ([4]; x2 = 0.9254) was 0.0385 ± 0.00117 kcal/mol. It also gave an excess molar enthalpy ([4]; x2 = 0.966) of 0.0136 ± 0.000598 kcal/mol.

Work on BrCCCCCCBr [1,6-dibromohexane] yielded a refractive index [1] of 1.506 ± 0.0009 and a mass density [2] of 1601.8 ± 2.5 kg/m3.

With BrCCCCCCBr [1,6-dibromohexane] + CCCC(=O)OCC the mass density ([3]; x2 = 0.0741) was 1554.45 ± 2.5 kg/m3, the mass density ([3]; x2 = 0.1407) was 1511.27 ± 2.6 kg/m3 and the mass density ([3]; x2 = 0.2026) was 1470.35 ± 2.6 kg/m3. The mass density ([3]; x2 = 0.2669) was 1427.12 ± 2.6 kg/m3, the mass density ([3]; x2 = 0.3292) was 1384.45 ± 2.6 kg/m3 and the mass density ([3]; x2 = 0.4493) was 1300.05 ± 2.6 kg/m3. It also gave a mass density ([3]; x2 = 0.5934) of 1194.98 ± 2.6 kg/m3, a mass density ([3]; x2 = 0.6267) of 1170.08 ± 2.6 kg/m3 and a mass density ([3]; x2 = 0.6854) of 1125.55 ± 2.6 kg/m3. It also gave a mass density ([3]; x2 = 0.7302) of 1091.1 ± 2.5 kg/m3, a mass density ([3]; x2 = 0.7843) of 1048.89 ± 2.5 kg/m3 and a mass density ([3]; x2 = 0.8939) of 961.41 ± 2.4 kg/m3. The excess molar enthalpy ([4]; x2 = 0.0629) was 0.00655 ± 0.000478 kcal/mol, the excess molar enthalpy ([4]; x2 = 0.1341) was 0.0105 ± 0.00055 kcal/mol and the excess molar enthalpy ([4]; x2 = 0.2059) was 0.0133 ± 0.000598 kcal/mol. The excess molar enthalpy ([4]; x2 = 0.2734) was 0.014 ± 0.000621 kcal/mol, the excess molar enthalpy ([4]; x2 = 0.3411) was 0.0136 ± 0.000598 kcal/mol and the excess molar enthalpy ([4]; x2 = 0.4017) was 0.0124 ± 0.000574 kcal/mol. It also gave an excess molar enthalpy ([4]; x2 = 0.4524) of 0.0103 ± 0.00055 kcal/mol, an excess molar enthalpy ([4]; x2 = 0.4952) of 0.00796 ± 0.000502 kcal/mol and an excess molar enthalpy ([4]; x2 = 0.5312) of 0.00562 ± 0.000478 kcal/mol. It also gave an excess molar enthalpy ([4]; x2 = 0.5662) of 0.00308 ± 0.00043 kcal/mol, an excess molar enthalpy ([4]; x2 = 0.6022) of 0.000191 ± 0.000382 kcal/mol and an excess molar enthalpy ([4]; x2 = 0.6161) of -0.000359 ± 0.000382 kcal/mol. For the same compound, the excess molar enthalpy ([4]; x2 = 0.6589) was -0.00213 ± 0.000406 kcal/mol, the excess molar enthalpy ([4]; x2 = 0.7115) was -0.00304 ± 0.00043 kcal/mol and the excess molar enthalpy ([4]; x2 = 0.7699) was -0.00366 ± 0.00043 kcal/mol. The excess molar enthalpy ([4]; x2 = 0.8324) was -0.00347 ± 0.00043 kcal/mol, the excess molar enthalpy ([4]; x2 = 0.8956) was -0.00213 ± 0.00043 kcal/mol and the excess molar enthalpy ([4]; x2 = 0.9514) was -0.000884 ± 0.000406 kcal/mol.
